Test results as given in article PMC10348910, “Epigenetic reprogramming of cell cycle genes by ACK1 promotes breast cancer resistance to CDK4/6 inhibitor” (Oncogene, 2023).

Key:
[1] = plasma protein binding in human plasma
[2] = system: CCNB1, CCNB2 and CDC20 mRNA; test: qRT-PCR of CCNB1, CCNB2 and CDC20 in breast cancer cells; type: cell-based; conditions: MCF7, MDA-MB-453, SKBR3 and HCC-1395 cells; overnight
Method: Fig. 2 ACK1 regulates breast cancer transcriptome, affecting genes implicated in cell cycle progression. A Chemical structure of (R)-9b. B Breast cancer cell lines were treated with either vehicle or (R)-9b overnight and cell lysates were subjected to immunoprecipitation using ACK1 antibody, followed by immunoblotting with pY284-ACK1 antibody. Lysates were also subjected to immunoblotting with total ACK1 and Actin antibodies, shown in the lower panels. […] C Breast cancer cell lines were treated with varying concentrations of (R)-9b for 96 h and the cell proliferation was measured using Trypan Blue exclusion method. D–H RNA from breast cancer cells treated with vehicle or varying concentrations of (R)-9b overnight, and were subjected to qRT-PCR using CCNB1, CCNB2 and CDC20 primers. Actin or 18S rRNA was used as housekeeping control. For (B), representative images of three independent experiments are shown. For (C), a four parameter, variable slope, non-linear regression curve was computed, representing three independent experiments. […]
Real-time quantitative PCR analyses were performed using the ABI PRISM 7900HT Sequence Detection System (Applied Biosystems) as described earlier. […] Data were analyzed using SDS software version 2.2.2 and exported into an Excel spreadsheet. […]

[3] = system: normal breast cells, MCF10a; test: cell cycle analysis, propidium iodide flow cytometry; type: cell-based; conditions: 48 h
Method: (§1) A–F Breast cancer cells were treated with either vehicle or (R)-9b for 48 h; cells were harvested and processed for cell cycle analysis using propidium iodide staining, followed by flow cytometry. G BT549 and H MDA-MB-468 cells were treated with varying drug concentrations of palbociclib or (R)-9b for 96 h and the cell viability assessed using trypan blue exclusion method. I BT549, and J MDA-MB-468 cells were treated with 1 µM palbociclib or (R)-9b for 48 h and subjected to cell cycle analysis using propidium iodide staining, followed by flow-cytometry. Palbociclib-resistant MDA-MB-231 (K) and HCC-1395 (L) were generated and treated with varying drug concentrations of palbociclib or (R)-9b for 96 h and the cell viability assessed using trypan blue exclusion method.
(§2) For proliferation assay, 5 × 10^4 cells were plated in 6-well plate and treated with either vehicle (DMSO) or varying concentrations of (R)-9b or palbociclib in complete media for 96 h and number of viable cells were counted by trypan blue exclusion assay. Breast cancer cell lines were treated with vehicle or varying concentrations of (R)-9b for 72 h. The cells were harvested, washed 2 times with PBS and incubated with 3 ul of Annexin V-FITC antibody according to the manufacturers protocol (BD Biosciences). Five µl Propidium iodide was used to stain necrotic cells. The cells were acquired using the BD FACSCalibur machine (BD Biosciences) and data was analyzed using FlowJo software. Cell cycle analysis was performed as mentioned earlier. Briefly, vehicle or (R)-9b (48 h) treated cells were harvested by trypsinization, washed 2 times with PBS, and fixed using chilled 70% Ethanol for 1 h, followed by 2 washes with PBS. The cell pellets were treated with 50 µl RNase A (100 µg/ml; Sigma) for 15 min at 37 °C and Propidium Iodide (PI; 50 µg/ml, Sigma) was added to these cells, followed by acquisition using BD FACS Canto-II or FACSCalibur machines. The data were analyzed using FlowJo software.

breast cancer cell lines = test: as above; type: cell-based; conditions: 48 h
Method: as §1, §2

pY88-H4 = test: immunoprecipitation and immunoblotting for pY88-H4; type: cell-based; conditions: breast cancer cell lines; overnight
Method: Fig. 4 ACK1 epigenetically modifies the chromatin landscape by depositing pY88-H4 activating marks, regulating cell cycle genes. A Breast cancer cell lines were treated with (R)-9b overnight and the cell lysates were subjected to immunoprecipitation using pY88-H4 antibody, followed by immunoblotting with H4 antibody. Lysates were also subjected to immunoblotting with total H4 and Actin antibodies, shown in the lower panels. […] B Venn diagrams summarizing the overlap between sites bound by pY88-H4 in vehicle treated and (R)-9b treated MDA-MB-453 cells. […] Breast cancer cells were subjected to ChIP using pY88-H4 antibody followed by qPCR for (D) CCNB1, (E) CCNB2, and (F) CDC20 genes. For (A), representative images of three independent experiments are shown. For (D–F), data are represented as the mean ± SEM. *p < 0.05, **p < 0.01, ***p < 0.001, unpaired two-tailed Student’s t test.
Vehicle or (R)-9b (5 µM, overnight in serum free media) treated cells were lysed by sonication in receptor lysis buffer (RLB) and lysates were fractionated by SDS-PAGE, and transferred onto a PVDF membrane (Immobilon). […]

[4] = system: 78 targets (cell surface receptors, ion channels, kinases, nuclear hormone receptors, GPCRs and other relevant enzymes); test: DiscoverX SAFETYscan pharmacological profiling (78 assays)
From the text: We performed pharmacological profiling of (R)-9b, to identify undesirable off-target activity profile using DiscoverX SAFETYscan, which has a broad menu containing 78 assays, and provides functional data for cell surface receptors, ion channels, kinases, nuclear hormone receptors, GPCRs and other relevant enzymes, inhibition of which could cause significant toxicity in human clinical trials.

remaining after 6 h of treatment ([1]; 6 h): over 96%
fraction unbound ([1]; human, plasma, Plasma Protein Binding (PPB)): 0.17
SMILES: CN1CCN(c2ccc(Nc3ncc(Cl)c(NC[C@H]4CCCO4)n3)cc2)CC1 [(R)-9b]
CCNB1, CCNB2 and CDC20 mRNA transcripts [2]: significant downregulation
cell cycle effect [3]: no G2/M arrest
cell cycle effect (breast cancer cell lines; MDA-MB-453, MCF7, HCC-1395, SKBR3 and T47D): arrest in G2/M phase
cell cycle effect (breast cancer cell lines; palbociclib-resistant BT549 and MDA-MB-468 cells, 1 µM): G2/M cell cycle arrest
pY88-H4 epigenetic marks (immunoblot) (pY88-H4): significantly compromised
off-target inhibition in SAFETYscan [4]: None of the 78 targets were inhibited significantly
